Measured values taken from PMC13095444, “Discovery of RGS2-FBXO44 interaction inhibitors using a cell-based NanoBit assay” (Molecular Pharmacology, 2025).

Experiments:
[1] = test system: HEK-293T-RGS2-FBXO44 NanoBit cells; assay: Cell viability assay (GF-AFC fluorescence) multiplexed with NanoBit; assay type: cell-based, Human; conditions: 100 μM, 16–18 hours, fresh powder
Method: The cells were plated in DMEM without phenol red (Gibco, #21063), 0.1% BSA in a white, tissue culture-treated 384-well plate (Perkin Elmer) at 15,000 cells/well, unless indicated otherwise, and allowed to attach. The plate was centrifuged at 212 × g for 30 seconds to aid in even cell adherence. Compound treatments were initiated 4–5 hours after plating. Following indicated treatment times, media was removed from the plate using BioTek ELx405 plate washer. Additionally, 10 μL of Hank’s Balanced Salt solution (HBSS) with 0.1% BSA was added to each well, followed by 5 μL of glycyl-phenylalanyl-aminofluorocoumarin (GF-AFC; MP Biomedicals) diluted 1:1000 in 100 mM HEPES. Plates were then centrifuged at 212 × g for 30 seconds and then incubated at 37 °C for 30 minutes. Fluorescence was detected on a Synergy Neo2 multimode plate reader (BioTek/Agilent).
Our primary assay using the HEK-293T RGS2-FBXO44 NanoBit cell line was extensively optimized to ensure maximum quality for screening. Coupling a fluorescent cell viability assay with our screen would allow us to rule out cytotoxic compounds while also hopefully reducing outliers from pipetting errors while plating cells. Thus, we multiplexed our NanoBit assay with cell viability using a cell-permeable fluorogenic protease substrate (glycyl-phenylalanyl-aminofluorocoumarin; GF-AFC; [Niles et al, 2007]), which can be combined with a luminescent readout without interfering with the luciferase signal. We previously utilized a similar multiplexing strategy in several screens ([Sjögren et al, 2012]; [Raveh et al, 2014]; [Sjögren et al, 2015]). We assessed and optimized treatment conditions (time, temperature, and reagent volume), cell density, buffer composition, and DMSO tolerance. In addition to the supplied proprietary LCS buffer (Promega), we also tested DMEM, 0.1% BSA, PBS, and HBSS (Supplemental Fig. 1A–C). […] The luminescent signal was stable up to 45 minutes after reagent addition, and we chose to run subsequent assays using 20 minutes of incubation time (Supplemental Fig. 1E). We also observed no effect on either viability or luminescence signal at DMSO concentrations <1% (Data not shown).
HEK-293T-RGS2-FBXO44 NanoBit cells were treated for 16–18 hours with compound at 100 μM. This relatively high concentration was chosen because of the challenging nature of our assay (intracellular PPI inhibition). Parental HEK-293T cells were used as a negative control. […] Based on these criteria, 97 compounds were identified as hits from our primary screen (6.1% initial hit rate). To confirm hits, the same assay was repeated in triplicate, which delivered 34 compounds that reached the threshold for inhibition in at least 2 replicates with <25% cell toxicity (Fig. 2C; Supplemental Table 1), thus rendering a final hit rate of 2.1%.

RGS2-FBXO44 interaction = biological target: T1, RGS2-FBXO44 interaction (Homo sapiens, UniProt P41220); assay: Coimmunoprecipitation of RGS2-HA and FLAG-FBXO44; assay type: cell-based; conditions: 100 μM; anti-HA IP, FLAG-FBXO44 normalized to input, vs DMSO
T1 construct: expressed in transfected cells
T1 sequence (P41220 1-211): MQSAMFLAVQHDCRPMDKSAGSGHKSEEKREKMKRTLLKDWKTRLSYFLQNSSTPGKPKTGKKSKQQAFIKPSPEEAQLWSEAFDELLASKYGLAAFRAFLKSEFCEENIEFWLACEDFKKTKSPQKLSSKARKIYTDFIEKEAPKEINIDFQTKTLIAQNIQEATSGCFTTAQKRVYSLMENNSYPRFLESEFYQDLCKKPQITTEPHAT
Method: The cells were harvested in RIPA buffer containing protease inhibitors. The cells were then lysed by incubating on ice with occasional vortexing for 30 minutes. The cell lysates were centrifuged at 9600 × g for 10 minutes, and the supernatants were precleared by incubating with 40 μL prewashed protein A agarose beads (Roche) for 1 hour with slow rotation at 4 °C. The samples were then centrifuged at 10,000 rpm for 1 minute, and the supernatant was used to determine total protein concentration with the Pierce BCA Protein Assay Kit (Thermo Scientific). In total, 500 μg of total protein was used for each reaction. The samples were incubated with 100 μM compound 10 for 30 minutes with rotation at 4 °C. An equal amount of DMSO was used as a vehicle. Additionally, 20 μL was removed from each sample (input); 3 μL of rabbit anti-HA antibody (H6908; Sigma Aldrich) and 40μL of protein A agarose beads (Roche) were added to each sample prior to incubation on rotator at 4 °C overnight. The samples were centrifuged at 9600 × g for 5 minutes at 4 °C, and the supernatant was removed. The samples were washed once with 1 mL RIPA buffer and then 3× with 1 mL PBS. Bound proteins were eluted by heating the samples at 95 °C in 30 μL of SDS sample buffer for 10 minutes. The samples were centrifuged at 10,000 rpm for 5 minutes at 4 °C, and the supernatants were subjected to SDS-PAGE and western blot analysis. […]

Association between RGS2 and FBXO44 (co-IP) (RGS2-FBXO44 interaction): almost completely blocked
SMILES: CCC1CCCCN1S(=O)(=O)c1cc(Br)ccc1OC (centres unmarked) [Compound 10]
Viability (% of Control) [1]: 69.3∗∗∗∗ % of Control
